Data published in patent publication US20190060239A1, “Technology for the Preparation of Microparticles” (Ansun Biopharma, Inc., priority 2007, published 2019).

Columns and labels:
[1] = Microsphere quality score by light microscopy (scoring system of Table 13); format: physicochemical; details: for Microsphere Quality: compound 2 mg/ml
Protocol: For each of the compounds listed in A-D above, and for DAS181, cocktail solutions containing 2 mg/ml of compound dissolved in an aqueous solvent and various counterions, antisolvents and pH, as listed below, were prepared in a 96-well microtiter plate (0.1 ml cocktail/well) at room temperature. Control solutions contained either solvent or antisolvent alone, with or without the counterion. Cocktails were cooled by placing in a freezer. The chilled plates were transferred onto pre-chilled (−45° C.) shelves of a Millrock Lab Series Lyophilizer, and the vacuum was applied. The frozen cocktail solutions were allowed to lyophilize for 16 hours.
The lyophilized powders from the bottoms of the wells were transferred onto glass slides and analyzed by light microscopy for appearance. The quality of the product microspheres was scored based on the uniformity of the microspheres, the absence of undesirable non-microsphere particles (glass-like crystalline forms), and the absence of aggregates.
Arginine was used as counterion and isopropanol was used as antisolvent. Concentrations of each of the cocktail components—the compound, the counterion and the antisolvent—were varied as shown below in Table 15, and the effect on microsphere quality assessed.
Experiments were performed to evaluate the effect of antisolvent and counterion concentration variation on the formation of microspheres. The peptides leuprolide and somatostatin, and the antibiotics vancomycin and tobramycin, were tested under a variety of conditions for forming microspheres. Samples were analyzed in 96-well plates as described in the previous Examples.
The experiments were performed using PGI2 and an analog of PGI2, Ciprostene, at a concentration of 2 mg/ml. Cocktail solutions were mixed at room temperature, then cooled by placing in a freezer. The chilled plates were transferred onto pre-chilled (−45° C.) shelves of a Millrock Lab Series Lyophilizer, and the vacuum was applied. The frozen cocktail solutions were allowed to lyophilize for 16 hours.
Because the resulting prostaglandin microspheres are hygroscopic, upon microsphere initiation, the humidity was maintained at low levels during the experiments, using a nitrogen gas tank attached to the backfill system on the lyophilizer. Each of the reaction tubes was flushed with N2. In addition, the backfill valve on the lyophilizer was left open to continually flush a low humidity atmosphere over the samples. The microscope used to visualize the resulting microspheres was contained within a plastic bag that was continually purged with dry N2. Sample tubes were placed under the bag to equilibrate for approximately 30 seconds, before opening and spreading onto the glass slide.
The compound/counterion/antisolvent conditions were as follows:
Experiments were performed with 200 μl of each of the above cocktail solutions in a 2 ml lyophilization bottle (first flash freeze condition), and 25 μl of each of the above cocktail solutions in a PCR tube (second flash freeze condition). The samples in the lyophilization bottles took approximately 15 seconds to freeze. The samples in the PCR tubes took approximately 3 seconds or less to freeze.
The cocktails in the 96-well plates were cooled by placing in a freezer. The chilled plates were transferred onto pre-chilled (−45° C.) shelves of a Millrock Lab Series Lyophilizer, and a vacuum was applied. The frozen cocktail solutions were allowed to lyophilize for 16 hours.
The lyophilized powders from the bottoms of the wells were transferred onto glass slides and analyzed by light microscopy for appearance.

[2] = cited from earlier work
[3] = Microsphere formation, size and appearance by light microscopy; format: physicochemical; details: 2 mg/ml paclitaxel; isopropanol, t-butanol or DMSO with 2 mM Na-citrate buffer pH 5.0
[4] = Bombuwala et. al., Beilstein J. Org. Chem. 2006, 2:13; cited from earlier work

Microsphere Quality ([1]; 2 mM Arginine, pH 9, 20% n-propanol, 0% t-butanol) | Microsphere Quality ([1]; 2 mM Arginine, pH 9, 20% n-propanol, 30% t-butanol) | Microsphere Quality ([1]; 2 mM PEI, pH 10.75, 30% n-propanol, 0% t-butanol) | Microsphere Quality ([1]; 2 mM TEA, pH 11, 20% n-propanol, 0% t-butanol) | Microsphere Quality ([1]; 2 mM TEA, pH 11, 20% n-propanol, 5% t-butanol) | Microsphere Quality ([1]; 2 mM TEA, pH 11, 20% n-propanol, 55% t-butanol) | Microsphere Quality ([1]; 2 mM TEA, pH 11, 20% n-propanol, 70% t-butanol) | Microsphere Quality ([1]; 2 mM TEA, pH 11, 30% n-propanol, 0% t-butanol) | SMILES | solubility in water / aqueous solutions [2] | appearance after flash freeze ([1]; both flash freeze conditions, Paclitaxel/citrate pH 5.0/90% t-butanol) | organic solvent concentration at which paclitaxel precipitated [3] | log P (log of the octanol/water partition coefficient) [4] | API half life ([2]; at physiological pH)
7/8 | 6/7 | 6/7 | 4/5 | 8/7 | 6/7 | 5/6 | 3/4 | CCCCC[C@H](O)/C=C/[C@H]1[C@H](O)C[C@]2(C)C/C(=C\CCCC(=O)O)C[C@H]12 [Ciprostene] | not highly soluble in aqueous solutions | – | – | – | –
– | – | – | – | – | – | – | – | CC(=O)O[C@H]1C(=O)[C@@]2(C)[C@H]([C@H](OC(=O)c3ccccc3)[C@]3(O)C[C@H](OC(=O)[C@H](O)[C@@H](NC(=O)c4ccccc4)c4ccccc4)C(C)=C1C3(C)C)[C@]1(OC(C)=O)CO[C@@H]1C[C@@H]2O [Paclitaxel] | – | mostly crystalline | ≤ 25% | higher than 3 | –
– | – | – | – | – | – | – | – | CCCCC[C@H](O)/C=C/[C@@H]1[C@H]2C/C(=C/CCCC(=O)O)O[C@H]2C[C@H]1O [PGI2] | higher solubility in water | – | – | – | on the order of minutes
